According to PubChem BioAssay (NCI):
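GI50 is the concentration that inhibits growth by half. Definition used: TGI = concentration required for complete inhibition of growth.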

Assays:
Test in all cases: NCI tumour cell line growth inhibition, 384-well format
786-0 renal = system: 786-0 renal
A498 renal = system: A498 renal
A549 NSCLC = system: A549 NSCLC
ACHN renal = system: ACHN renal
BT-549 breast = system: BT-549 breast
CAKI-1 renal = system: CAKI-1 renal
CCRF-CEM leukemia = system: CCRF-CEM leukemia
COLO 205 colon = system: COLO 205 colon
DU-145 prostate = system: DU-145 prostate
EKVX NSCLC = system: EKVX NSCLC
HCC-2998 colon = system: HCC-2998 colon
HCT-15 colon = system: HCT-15 colon
HL-60(TB) leukemia = system: HL-60(TB) leukemia
HOP-62 NSCLC = system: HOP-62 NSCLC
HOP-92 NSCLC = system: HOP-92 NSCLC
HS 578T breast = system: HS 578T breast
HT29 colon = system: HT29 colon
IGROV1 ovarian = system: IGROV1 ovarian
K-562 leukemia = system: K-562 leukemia
KM12 colon = system: KM12 colon
LOX IMVI melanoma = system: LOX IMVI melanoma
M14 melanoma = system: M14 melanoma
MALME-3M melanoma = system: MALME-3M melanoma
MCF7 breast = system: MCF7 breast
MDA-MB-231 breast = system: MDA-MB-231 breast
MDA-MB-435 melanoma = system: MDA-MB-435 melanoma
MDA-MB-468 breast = system: MDA-MB-468 breast
MOLT-4 leukemia = system: MOLT-4 leukemia
NCI-H226 lung = system: NCI-H226 lung
NCI-H23 lung = system: NCI-H23 lung
NCI-H322M lung = system: NCI-H322M lung
NCI-H460 NSCLC = system: NCI-H460 NSCLC
NCI-H522 lung = system: NCI-H522 lung
NCI/ADR-RES ovarian = system: NCI/ADR-RES ovarian
OVCAR-3 ovarian = system: OVCAR-3 ovarian
OVCAR-4 ovarian = system: OVCAR-4 ovarian
OVCAR-5 ovarian = system: OVCAR-5 ovarian
OVCAR-8 ovarian = system: OVCAR-8 ovarian
PC-3 prostate = system: PC-3 prostate
RPMI-8226 leukemia = system: RPMI-8226 leukemia
RXF 393 renal = system: RXF 393 renal
SF-268 CNS = system: SF-268 CNS
SF-295 CNS = system: SF-295 CNS
SF-539 CNS = system: SF-539 CNS
SK-MEL-28 melanoma = system: SK-MEL-28 melanoma
SK-MEL-5 melanoma = system: SK-MEL-5 melanoma
SK-OV-3 ovarian = system: SK-OV-3 ovarian
SN12C renal = system: SN12C renal
SNB-19 CNS = system: SNB-19 CNS
SNB-75 CNS = system: SNB-75 CNS
SR leukemia = system: SR leukemia
SW-620 colon = system: SW-620 colon
T-47D breast = system: T-47D breast
TK-10 renal = system: TK-10 renal
UACC-257 melanoma = system: UACC-257 melanoma
UACC-62 melanoma = system: UACC-62 melanoma
UO-31 renal = system: UO-31 renal

**Q.** Which results are given for C[C@H]1COCCN1c1nc(-c2cnc(N)cc2C(F)F)nc(N2CCOCC2)n1?
**A.** GI50 ([…]-0 renal): 385 nM; TGI (786-0 renal): 6130 nM; GI50 (A498 renal): 49.3 nM; TGI (A498 renal): 447 nM; GI50 (A549 NSCLC): 221 nM; TGI (A549 NSCLC): 2750 nM; GI50 (ACHN renal): 247 nM; TGI (ACHN renal): 3830 nM; GI50 (BT-549 breast): 175 nM; TGI (BT-549 breast): 758 nM; GI50 (CAKI-1 renal): 196 nM; TGI (CAKI-1 renal): 3960 nM; GI50 (CCRF-CEM leukemia): 224 nM; TGI (CCRF-CEM leukemia): 1680 nM; GI50 (COLO 205 colon): 201 nM; TGI (COLO 205 colon): 11800 nM; GI50 (DU-145 prostate): 308 nM; TGI (DU-145 prostate): > 100000 nM; GI50 (EKVX NSCLC): 189 nM; TGI (EKVX NSCLC): 780 nM; GI50 (HCC-2998 colon): 423 nM; TGI (HCC-2998 colon): 12400 nM; GI50 (HCT-15 colon): 181 nM; TGI (HCT-15 colon): 30900 nM; GI50 (HL-60(TB) leukemia): 289 nM; TGI (HL-60(TB) leukemia): 2820 nM; GI50 (HOP-62 NSCLC): 261 nM; TGI (HOP-62 NSCLC): 4410 nM; GI50 (HOP-92 NSCLC): 102 nM; TGI (HOP-92 NSCLC): 462 nM; GI50 (HS 578T breast): 52.8 nM; TGI (HS 578T breast): 273 nM; GI50 (HT29 colon): 263 nM; TGI (HT29 colon): 55300 nM; GI50 (IGROV1 ovarian): 53.8 nM; TGI (IGROV1 ovarian): 265 nM; GI50 (K-562 leukemia): 548 nM; TGI (K-562 leukemia): > 100000 nM; GI50 (KM12 colon): 294 nM; TGI (KM12 colon): 12000 nM; GI50 (LOX IMVI melanoma): 242 nM; TGI (LOX IMVI melanoma): 1170 nM; GI50 (M14 melanoma): 191 nM; TGI (M14 melanoma): 27400 nM; GI50 (MALME-3M melanoma): 50.7 nM; TGI (MALME-3M melanoma): 309 nM; GI50 (MCF7 breast): 45.3 nM; TGI (MCF7 breast): 3080 nM; GI50 (MDA-MB-231 breast): 248 nM; TGI (MDA-MB-231 breast): > 100000 nM; GI50 (MDA-MB-435 melanoma): 275 nM; TGI (MDA-MB-435 melanoma): 2520 nM; GI50 (MDA-MB-468 breast): 172 nM; TGI (MDA-MB-468 breast): 487 nM; GI50 (MOLT-4 leukemia): 103 nM; TGI (MOLT-4 leukemia): 406 nM; GI50 (NCI-H226 lung): 159 nM; TGI (NCI-H226 lung): 649 nM; GI50 (NCI-H23 lung): 184 nM; TGI (NCI-H23 lung): 30700 nM; GI50 (NCI-H322M lung): 203 nM; TGI (NCI-H322M lung): 10900 nM; GI50 (NCI-H460 NSCLC): 68.7 nM; TGI (NCI-H460 NSCLC): > 100000 nM; GI50 (NCI-H522 lung): 206 nM; TGI (NCI-H522 lung): 1630 nM; GI50 (NCI/ADR-RES ovarian): 399 nM; TGI (NCI/ADR-RES ovarian): > 100000 nM; GI50 (OVCAR-3 ovarian): 270 nM; TGI (OVCAR-3 ovarian): 2930 nM; GI50 (OVCAR-4 ovarian): 115 nM; TGI (OVCAR-4 ovarian): 585 nM; GI50 (OVCAR-5 ovarian): 163 nM; TGI (OVCAR-5 ovarian): 1170 nM; GI50 (OVCAR-8 ovarian): 307 nM; TGI (OVCAR-8 ovarian): > 100000 nM; GI50 (PC-3 prostate): 166 nM; TGI (PC-3 prostate): 10100 nM; GI50 (RPMI-8226 leukemia): 30.7 nM; TGI (RPMI-8226 leukemia): 155 nM; GI50 (RXF 393 renal): 315 nM; TGI (RXF 393 renal): 2880 nM; GI50 (SF-268 CNS): 311 nM; TGI (SF-268 CNS): 36100 nM; GI50 (SF-295 CNS): 106 nM; TGI (SF-295 CNS): 463 nM; GI50 (SF-539 CNS): 323 nM; TGI (SF-539 CNS): 5880 nM; GI50 (SK-MEL-28 melanoma): 146 nM; TGI (SK-MEL-28 melanoma): 890 nM; GI50 (SK-MEL-5 melanoma): 143 nM; TGI (SK-MEL-5 melanoma): 417 nM; GI50 (SK-OV-3 ovarian): 129 nM; TGI (SK-OV-3 ovarian): 441 nM; GI50 (SN12C renal): 138 nM; TGI (SN12C renal): 772 nM; GI50 (SNB-19 CNS): 2330 nM; TGI (SNB-19 CNS): > 100000 nM; GI50 (SNB-75 CNS): 117 nM; TGI (SNB-75 CNS): 810 nM; GI50 (SR leukemia): 125 nM; TGI (SR leukemia): 370 nM; GI50 (SW-620 colon): 554 nM; TGI (SW-620 colon): > 100000 nM; GI50 (T-47D breast): 19.7 nM; TGI (T-47D breast): 106 nM; GI50 (TK-10 renal): 254 nM; TGI (TK-10 renal): 2010 nM; GI50 (UACC-257 melanoma): 389 nM; TGI (UACC-257 melanoma): 3210 nM; GI50 (UACC-62 melanoma): 227 nM; TGI (UACC-62 melanoma): 1490 nM; GI50 (UO-31 renal): 321 nM; TGI (UO-31 renal): > 100000 nM
